Assay results: PubChem BioAssay (NCI)
Values joined by “and” are separate entries in the source; they are usually repeats but may differ in a detail not shown here. Equal values may be shown once.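 Results reflect a 48-hour exposure of cells in 96-well plates to compound at five concentrations. GI50 = concentration required for 50% inhibition of growth. Definition used: TGI = concentration required for complete inhibition of growth.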 Where a SMILES comes first, the peptide text is derived from it. [ ]: non-standard residue; d: D form. Ac5c = NC1(C(=O)O)CCCC1

Legend:
Test in all cases: NCI anticancer screen, dose series, 48 h
A498 renal = test system: A498 renal
SF-295 CNS = test system: SF-295 CNS
NCI-H522 lung = test system: NCI-H522 lung
SK-MEL-28 melanoma = test system: SK-MEL-28 melanoma
SNB-75 CNS = test system: SNB-75 CNS
HL-60(TB) leukemia = test system: HL-60(TB) leukemia
MDA-MB-435 = test system: MDA-MB-435
OVCAR-3 ovarian = test system: OVCAR-3 ovarian
HOP-62 NSCLC = test system: HOP-62 NSCLC
U251 CNS = test system: U251 CNS

SMILES	TGI (A498 renal) [µM]	GI50 (SF-295 CNS) [µM]	TGI (SF-295 CNS)	GI50 (NCI-H522 lung)	TGI (NCI-H522 lung)	TGI (SK-MEL-28 melanoma)	GI50 (SNB-75 CNS) [µM]	TGI (SNB-75 CNS)	GI50 (HL-60(TB) leukemia)	TGI (HL-60(TB) leukemia)	GI50 (MDA-MB-435) [µM]	TGI (MDA-MB-435)	GI50 (OVCAR-3 ovarian)	TGI (OVCAR-3 ovarian)	GI50 (HOP-62 NSCLC) [µM]	TGI (HOP-62 NSCLC)	GI50 (U251 CNS) [µM]	TGI (U251 CNS) [µM]	GI50 (A498 renal) [µM]	GI50 (SK-MEL-28 melanoma) [µM]
CO[C@@H]1/C=C\C=C(/C)C(=O)NC2=CC(=O)C(NCCN(C)C)=C(C[C@@H](C)C[C@@H](OC)[C@@H](O)[C@H](C)/C=C(\C)[C@H]1OC(N)=O)C2=O	28.3	0.0278	17.2 µM and 11.7 µM	< 0.01 µM and 0.0228 µM	0.709 µM and 3.57 µM	> 100 µM and 32.4 µM	< 0.0235	0.977 µM and 6.15 µM	< 0.0106 µM and 0.0715 µM	1.4 µM and 0.734 µM	< 0.0124	3.1 µM and 1.32 µM	0.068 µM and 0.0369 µM	6.26 µM and 2.39 µM	0.0859	17 µM and 19.1 µM	0.0144	8.18		
CC12OC(c3ccccc3)=CC(c3ccc(Cl)cc3)=C1C(c1ccccc1)=CC2=O (configuration not stated)	> 100	25	> 100 µM	72.2 µM	> 100 µM	> 100 µM	33.4	> 100 µM	23.2 µM	77.7 µM	81.3	> 100 µM	80 µM	> 100 µM	> 100	> 100 µM	33.1	> 100	> 100	66.5
CSc1ccc(C2=NN(C(=O)c3ccc(F)cc3)C(c3ccc(F)cc3)C2)cc1 (configuration not stated)	34.9	17.9	33.7 µM	13.3 µM	27.7 µM	32.6 µM	13.1	26 µM	12 µM	35.3 µM	10.6	26.8 µM	10.3 µM	22.5 µM	18.4	33.7 µM	4.54	15.5	19.6	18.3
NC1(C(=O)NC2(C(=O)O)CCCC2)CCCC1 (H-[Ac5c]-[Ac5c]-OH)	> 100		> 100 µM		> 100 µM	> 100 µM		> 100 µM		> 100 µM		> 100 µM		> 100 µM		> 100 µM		> 100		
Cc1nc2sc(C(=O)Nc3cccc(Cl)c3C)c(N)c2cc1C(=O)/C=C/c1ccccc1	1.4	0.446	2.1 µM	0.172 µM	0.999 µM	2.88 µM	0.217	5.45 µM	0.575 µM	2.13 µM	0.111	0.263 µM	0.199 µM	0.737 µM	0.339	1.73 µM	0.252	0.981	0.298	0.641
CC1=C2[C@@H](CC1)[C@]1(C)O[C@@](C3CCCCC3)(C[C@H]1OC(=O)CO)[C@H]2OC(=O)/C=C/c1ccccc1	0.0731	6.45	19 µM	7.71 µM	22.5 µM	27.1 µM	7.94	34.8 µM	6.48 µM	18.3 µM	8.65	23.6 µM	6.92 µM	18.7 µM	12	25.5 µM	7.72	20.5	0.0208	9.53
CC[C@H](NC(=O)[C@H](C)NC)C(=O)N1C[C@@H](O)C[C@H]1Cc1c(-c2[nH]c3cc(F)ccc3c2C[C@@H]2C[C@H](O)CN2C(=O)[C@H](CC)NC(=O)[C@H](C)NC)[nH]c2cc(F)ccc12	> 100	> 100	> 100 µM	8.21 µM	35.1 µM	> 100 µM	2.65	> 100 µM	7.15 µM	42.9 µM		> 100 µM	> 100 µM	> 100 µM	27.5	> 100 µM	93.2	> 100	> 100	> 100
C=CCC(N[C@H](CO)c1ccccc1)c1ccc2ccccc2n1 (some centres not stated)	> 100	> 100	> 100 µM	> 100 µM	> 100 µM	> 100 µM	> 100	> 100 µM	48.7 µM	> 100 µM	> 100	> 100 µM	> 100 µM	> 100 µM	> 100	> 100 µM	> 100	> 100	29.3	> 100
O=C(O[C@H]1CN[C@H](C#Cc2cc3ncnc(Nc4ccc5c(ccn5Cc5cc(F)ccc5F)c4)c3s2)C1)N1CCOCC1	5.2	6.02	17.7 µM	0.147 µM	4.1 µM	7.98 µM	0.853	6.21 µM	3.5 µM	11 µM	5.13	18.2 µM	2.86 µM	6.55 µM	3.22	8.06 µM	3.61	8.25	0.765	4.06
COc1ccc(/C=N\NC(=O)CN2CCN(c3cc4c(cc3F)c(=O)c(C(=O)N/N=C/c3ccc(OC)c(OC)c3)cn4C3CC3)CC2)cc1OC	23.4	17.9	63 µM	3.66 µM	> 100 µM	3.86 µM	1.56	3.49 µM	3.36 µM	18.2 µM	2.02	3.97 µM	2.65 µM	7.26 µM	2.74	9.54 µM	2.29	6.29	1.4	2
